Assays:
[1] = system: pooled human liver microsomes (HLM); assay: Formation kinetics of SRL metabolites by pooled human liver microsomes; type: in vitro ADME; details: for Km: apparent Km of formation of the metabolite from sirolimus; for Km / Vmax: Michaelis–Menten fit; for Vmax: apparent Vmax of formation of the metabolite from sirolimus; for CLint: apparent intrinsic clearance of formation of the metabolite, CLint = Vmax/Km
Protocol: (§1) Apparent enzyme kinetic parameters for the major SRL metabolites were assessed. […] Before the addition of the SRL, the NADPH-generating system was preincubated at 37 °C (type C24 incubator shaker, New Brunswick Scientific, Edison, NJ, USA) for 5 min. […] The final volume of the reaction solution was 500 μL, and the reaction was quenched by the addition of a 1:1 volume of ice-cold acetonitrile. Following protein precipitation, samples were briefly vortexed and subsequently centrifuged at 4 °C and 13,000× g for 10 min. The supernatant was transferred to a 2-mL HPLC glass vial and analyzed using high-performance liquid chromatography/tandem mass spectrometry (LC-MS/MS). Representative control incubations without HLMs, without drug, or without the NADPH-generating system (all in quadruplicate) were carried out under the same conditions with every SRL HLM metabolism batch.
(§2) For data analysis, we utilized Sciex Analyst Software (version TF1.7.1) to process and interpret mass spectrometry data. […] Kinetics data was fitted using the GraphPad Prism Enzyme Kinetics Module (Version 10.0.2, for Windows, GraphPad Software, Boston, MA, USA).
(§3) The formation rates of hydroxy SRL and desmethyl SRL were analyzed and fitted using Michaelis–Menten kinetics. This approach enables the determination of kinetic parameters such as Vmax (maximum reaction velocity) and Km (substrate concentration at half-maximal velocity), which provide insight into the enzymatic activity and substrate affinity for these metabolites. […] To compare the formation of the various metabolites and to predict the human hepatic clearance, the apparent intrinsic clearances of the formation of the metabolites (CLint = Vmax/Km) were calculated.

[2] = system: phytohemagglutinin-stimulated human lymphocyte proliferation; set-up: method as in PMID 1352208; details: percent of the immunosuppressive activity of SRL; cited from earlier work
[3] = Formation kinetics of SRL metabolites by pooled human liver microsomes; type: in vitro ADME; details: human, pooled human liver microsomes, pH 7.4; sum over metabolite formation, pooled HLM, CLint = Vmax/Km; read-out: total Clint derived from the formation of hydroxylated and demethylated SRL metabolites
Protocol: as §1, §2, §3

[4] = set-up: method as in doi:10.1016/S0955-470X(10)80014-X, PMID 11165091; details: stability is increased in a mildly acidic environment; cited from earlier work

Molecule	Km ([1]; n = 4)	CLint [1]	Vmax ([1]; n = 4)	also measured
COC1CC2CCC(C)C(O)(O2)C(=O)C(=O)N2CCCCC2C(=O)OC(C(C)CC2CCC(O)C(O)C2)CC(=O)C(C)C=C(C)C(O)C(OC)C(=O)C(C)CC(C)C=CC=CC=C1C (stereo not drawn) [39-O-desmethyl SRL, 39-O-Desmethyl sirolimus]	15 µM	0.65 µL/mg protein/min	9.6 pmol/mg protein/min	Vmax ([1]; n = 4, listed as 39-O-desmthyl SRL): 9.647 pmol/mg protein/min; immunosuppressive activity relative to SRL [2]: 10%
23/24-Hydroxy sirolimus [23/24-Hydroxy SRL]	–	–	2.221 pmol/mg protein/min	–
11-Hydroxy sirolimus [11-Hydroxy SRL]	–	–	6.203 pmol/mg protein/min	Vmax ([1]; n = 4, listed as 11-hydroxy SRL): 6.2 pmol/mg protein/min
27-O-Desmethyl sirolimus [27-O-desmethyl SRL]	–	–	0.552 pmol/mg protein/min	–
CO[C@H]1C[C@@H]2CC[C@@H](C)[C@@](O)(O2)C(=O)C(=O)N2CCCC[C@H]2C(=O)O[C@H]([C@H](C)C[C@@H]2CC[C@@H](O)[C@H](OC)C2)CC(=O)[C@H](C)/C=C(\C)[C@@H](O)[C@@H](OC)C(=O)[C@H](C)C[C@H](C)/C=C/C=C/C=C/1C [SRL, Sirolimus]	–	–	–	microsomal CLint [3]: 2.35 µL/min/mg; stability in aqueous solutions [4]: low stability in aqueous solutions

Second part, led by results:

Km ([1]; n = 4)	CLint [1]	Molecule	Vmax ([1]; n = 4)	also measured
24.4 µM	0.08 µL/mg protein/min	CO[C@@H]1C[C@H](C[C@@H](C)[C@@H]2CC(=O)[C@H](C)/C=C(\C)[C@@H](O)[C@@H](OC)C(=O)[C@H](C)C[C@H](C)/C=C/C=C/C=C(\C)[C@@H](O)C[C@@H]3CC[C@@H](C)[C@@](O)(O3)C(=O)C(=O)N3CCCC[C@H]3C(=O)O2)CC[C@H]1O [16-O-desmethyl SRL, 16-O-Desmethyl sirolimus]	1.828 pmol/mg protein/min	–
7.21 µM	0.6 µL/mg protein/min	CO[C@H]1C[C@@H]2CC(O)[C@@H](C)[C@@](O)(O2)C(=O)C(=O)N2CCCC[C@H]2C(=O)O[C@H]([C@H](C)C[C@@H]2CC[C@@H](O)[C@H](OC)C2)CC(=O)[C@H](C)/C=C(\C)[C@@H](O)[C@@H](OC)C(=O)[C@H](C)C[C@H](C)/C=C/C=C/C=C/1C (stereo partly drawn) [12-Hydroxy SRL, 12-Hydroxy sirolimus]	4.264 pmol/mg protein/min	Vmax ([1]; n = 4, listed as 12-hydroxy SRL): 4.3 pmol/mg protein/min
